Experimental data reported in patent publication US12583841B2, “Tetrahydropyrrolocyclic compound and application thereof” (Breakthrough Pharmaceuticals Inc., priority 2021, dated 2026).
Read-outs that look alike come from different tables or passages of the source.

What was measured:
Assay type in all cases: in vivo
[1] = Drug concentration in brain tissue and plasma of SD rats; conditions: male, Sprague-Dawley (SD), po, SD rat, p.o. 30 mg/kg
Experimental: (§1) 4 healthy SD rats aged 6-9 weeks were selected, and the other group was given the test compound at 10 mg/kg by intragastric administration. 2 animals were randomly selected at 0.5 h and 2 h after administration, respectively. Plasma and brain tissue samples were collected, and LC-MS/MS method was used for quantitative analysis of all biological samples.
as §1, with “healthy male” for “healthy”, “selected” for “selected,”, “and” for “and the other group was”, “compound” for “compound at 10 mg/kg”, “selected to be euthanized” for “selected”

[2] = Pharmacokinetic parameters in Beagle dog plasma
Experimental: (§2) 4 healthy male Beagle dogs were selected and randomly divided into two groups, with 2 dogs in each group. One group was given the test compound at 1 mg/kg by intravenous injection, and the other group was given the test compound at 5 mg/kg by intragastric administration. Plasma samples were collected at 0.033, 0.083, 0.25, 0.5, 1.0, 2.0, 4.0, 6.0, 8.0, and 24 h after administration for the intravenous injection group and intragastric administration group, respectively. Quantitative analysis of all biological samples was carried out by LC-MS/MS method, and the WinNonlin™ Version 6.3 (Pharsight, Mountain View, CA) pharmacokinetic software was used to calculate the relevant pharmacokinetic parameters by the non-compartmental model linear logarithmic trapezoidal method. AUC0-last represents area under the plasma concentration-time curve from time zero to the last detectable concentration time point; p.o. represents oral; i.v. represents intravenous injection; T1/2 represents half-life; CL represents clearance rate; Vd represents apparent volume of distribution; Cmax represents peak concentration; Tmax represents time to peak; F % represents oral bioavailability.

[3] = Pharmacokinetic parameters in SD rat plasma
Experimental: as §2, with “healthy SD rats aged 6-9 weeks” for “healthy male Beagle dogs”, “2 rats” for “2 dogs”, “at 2” for “at 1”, “at 10” for “at 5”, “at” for “at 0.033,”
as §2, with “male SD rats aged 6-9 weeks” for “male Beagle dogs”, “2 rats” for “2 dogs”, “at 2” for “at 1”, “at 10” for “at 5”, “at” for “at 0.033,”

[4] = male, Sprague-Dawley (SD), plasma, iv, i.v. 2 mg/kg
[5] = male, Sprague-Dawley (SD), plasma, po, p.o. 10 mg/kg

Kp at 0.5 h ([1]; brain / plasma, 0.5 h, read-out: Brain-to-blood ratio): 0.25 | Kp at 2 h ([1]; brain / plasma, 2 h, read-out: Brain-to-blood ratio): 0.19 | concentration at 0.5 h ([1]; brain, 0.5 h, read-out: Drug concentration in brain): 1390 nM | concentration at 2 h ([1]; brain, 2 h, read-out: Drug concentration in brain): 212 nM | concentration at 0.5 h ([1]; plasma, 0.5 h, read-out: Drug concentration in plasma): 5600 nM | concentration at 2 h ([1]; plasma, 2 h, read-out: Drug concentration in plasma): 1100 nM | AUC(0-t) ([2]; male, plasma, iv, i.v. 1 mg/kg): 15.3 µM·h | clearance ([2]; male, plasma, iv, i.v. 1 mg/kg): 2.57 mL/min/kg | half-life ([2]; male, plasma, iv, i.v. 1 mg/kg): 167 min | Vd ([2]; male, plasma, iv, i.v. 1 mg/kg, read-out: Vdss): 0.41 L/kg | AUC(0-t) ([2]; male, plasma, po, p.o. 5 mg/kg): 26.2 µM·h | Cmax ([2]; male, plasma, po, p.o. 5 mg/kg): 6180 nM | Tmax ([2]; male, plasma, po, p.o. 5 mg/kg): 60 min | F ([2]; p.o. 5 mg/kg vs i.v. 1 mg/kg): 34% | AUC(0-t) [3, 4]: 1.76 µM·h | clearance [3, 4]: 44 mL/min/kg | half-life [3, 4]: 12 min | Vd ([3]; male, Sprague-Dawley (SD), plasma, iv, i.v. 2 mg/kg, read-out: Vdss): 0.57 L/kg | AUC(0-t) [3, 5]: 1.45 µM·h | Cmax [3, 5]: 1030 nM | Tmax [3, 5]: 15 min | F ([3]; p.o. 10 mg/kg vs i.v. 2 mg/kg): 17%
SMILES: COc1ccc(-n2nccn2)c(C(=O)N2C(c3nc4ccc(OC)cc4[nH]3)CC3CC32)c1 (stereo not shown) [Compound 8]
